The values that follow come from ChEMBL document CHEMBL6121066, “Structure-Activity Relationship Studies of DNA Methyltransferase 1 Monovalent Degraders” (J Med Chem, 2025).

Assay [1] concerns the target T1, Histone-lysine N-methyltransferase EHMT2 (Homo sapiens) (UniProt Q96KQ7).
T1 sequence (whole entry): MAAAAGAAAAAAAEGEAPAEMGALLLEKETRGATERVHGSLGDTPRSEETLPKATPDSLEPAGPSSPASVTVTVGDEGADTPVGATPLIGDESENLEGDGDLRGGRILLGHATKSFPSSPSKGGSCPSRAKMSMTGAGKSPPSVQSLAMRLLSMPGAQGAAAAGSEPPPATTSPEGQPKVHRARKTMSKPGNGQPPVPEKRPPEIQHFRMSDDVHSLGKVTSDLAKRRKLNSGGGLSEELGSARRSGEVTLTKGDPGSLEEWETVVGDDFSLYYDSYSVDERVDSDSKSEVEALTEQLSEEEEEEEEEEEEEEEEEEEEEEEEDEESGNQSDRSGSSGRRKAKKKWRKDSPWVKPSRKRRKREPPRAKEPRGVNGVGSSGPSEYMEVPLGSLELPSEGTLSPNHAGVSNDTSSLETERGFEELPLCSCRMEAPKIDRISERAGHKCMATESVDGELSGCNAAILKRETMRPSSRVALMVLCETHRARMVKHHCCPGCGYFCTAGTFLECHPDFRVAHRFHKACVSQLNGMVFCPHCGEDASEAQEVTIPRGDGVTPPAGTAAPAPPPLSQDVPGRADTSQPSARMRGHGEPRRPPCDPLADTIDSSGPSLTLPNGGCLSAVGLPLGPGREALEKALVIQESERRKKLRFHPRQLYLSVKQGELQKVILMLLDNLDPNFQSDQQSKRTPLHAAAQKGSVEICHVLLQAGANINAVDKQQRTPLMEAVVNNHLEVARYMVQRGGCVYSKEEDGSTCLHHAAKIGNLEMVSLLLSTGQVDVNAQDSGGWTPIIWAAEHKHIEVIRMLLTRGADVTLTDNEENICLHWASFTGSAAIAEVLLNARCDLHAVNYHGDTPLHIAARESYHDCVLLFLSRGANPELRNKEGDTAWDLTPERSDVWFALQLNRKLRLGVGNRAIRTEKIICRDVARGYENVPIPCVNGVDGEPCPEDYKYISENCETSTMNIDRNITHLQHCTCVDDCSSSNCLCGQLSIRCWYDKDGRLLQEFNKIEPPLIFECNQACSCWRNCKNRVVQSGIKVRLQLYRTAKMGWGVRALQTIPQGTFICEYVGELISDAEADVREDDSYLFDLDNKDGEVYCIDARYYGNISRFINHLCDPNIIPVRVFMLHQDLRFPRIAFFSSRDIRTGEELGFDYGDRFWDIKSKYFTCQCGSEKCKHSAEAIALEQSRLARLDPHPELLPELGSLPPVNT
Description: Inhibition of human G9a using histone H3 and SAM as substrate at 1 uM by radioisotope-based MT HotSpot assay relative to control.

For assay [2], the target named is T2, Histone-lysine N-methyltransferase NSD2 (Homo sapiens) (UniProt O96028).
T2 sequence (whole entry): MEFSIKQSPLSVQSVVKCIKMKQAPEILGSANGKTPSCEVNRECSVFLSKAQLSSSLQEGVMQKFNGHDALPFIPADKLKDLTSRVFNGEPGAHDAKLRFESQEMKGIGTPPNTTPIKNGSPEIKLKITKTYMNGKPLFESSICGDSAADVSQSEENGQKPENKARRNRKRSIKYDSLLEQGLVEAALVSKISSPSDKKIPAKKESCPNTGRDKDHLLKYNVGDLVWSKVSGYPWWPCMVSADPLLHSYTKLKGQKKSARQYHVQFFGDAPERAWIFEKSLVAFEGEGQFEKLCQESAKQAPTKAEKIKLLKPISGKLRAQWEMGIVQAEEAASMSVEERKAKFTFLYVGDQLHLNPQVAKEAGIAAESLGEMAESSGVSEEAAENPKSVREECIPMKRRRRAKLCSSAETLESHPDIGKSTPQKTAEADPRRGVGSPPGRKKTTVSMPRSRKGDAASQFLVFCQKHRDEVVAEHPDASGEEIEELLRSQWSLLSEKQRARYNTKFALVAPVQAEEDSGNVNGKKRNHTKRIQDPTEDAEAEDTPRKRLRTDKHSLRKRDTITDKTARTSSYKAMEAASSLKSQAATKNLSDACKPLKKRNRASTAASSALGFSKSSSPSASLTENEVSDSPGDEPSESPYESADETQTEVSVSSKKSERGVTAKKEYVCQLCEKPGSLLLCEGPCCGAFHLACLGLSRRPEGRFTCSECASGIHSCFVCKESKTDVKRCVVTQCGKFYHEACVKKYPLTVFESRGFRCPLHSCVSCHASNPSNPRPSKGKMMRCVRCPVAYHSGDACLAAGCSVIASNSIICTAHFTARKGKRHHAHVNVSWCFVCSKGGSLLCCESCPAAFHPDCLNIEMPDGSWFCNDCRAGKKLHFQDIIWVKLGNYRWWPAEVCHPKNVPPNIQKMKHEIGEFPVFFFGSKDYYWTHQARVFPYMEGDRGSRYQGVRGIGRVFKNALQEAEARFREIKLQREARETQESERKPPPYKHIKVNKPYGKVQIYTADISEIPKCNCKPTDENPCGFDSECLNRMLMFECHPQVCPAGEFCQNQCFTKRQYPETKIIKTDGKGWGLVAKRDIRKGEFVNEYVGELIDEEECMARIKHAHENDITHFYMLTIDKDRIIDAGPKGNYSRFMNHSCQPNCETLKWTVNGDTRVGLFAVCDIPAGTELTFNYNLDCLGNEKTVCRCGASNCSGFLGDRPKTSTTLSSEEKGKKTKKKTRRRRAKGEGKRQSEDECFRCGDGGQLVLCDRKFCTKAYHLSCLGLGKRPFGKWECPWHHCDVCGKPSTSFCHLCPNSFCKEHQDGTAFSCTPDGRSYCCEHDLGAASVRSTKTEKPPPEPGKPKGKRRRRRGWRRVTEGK
Put plainly: Inhibition of human NSD2 using nucleosomes and SAM as substrate at 1 uM by radioisotope-based MT HotSpot assay relative to control.

The target of assay [3] is DNA (cytosine-5)-methyltransferase 3B (Homo sapiens) (UniProt Q9UBC3). Put plainly: Inhibition of human full-length DNMT3B using lambda DNA and SAM as substrate at 1 uM by radioisotope-based MT HotSpot assay relative to control.
Assay [4] has as its system HCT-116. Put plainly: Induction of molecular glue effect mediated DNMT1 degradation in human HCT-116 cells transfected with NEDD4 siRNA assessed as reduction in DNMT1 protein level at 100 nM measured after 24 hrs by Western blot analysis. It counts as cell-based. For orientation: Immunoblotting shows a protein as a band on a membrane.
In assay [5] the test system is HCT-116. Description: Antiproliferative activity against human HCT-116 cells assessed as inhibition of cell growth upto 15 uM incubated for 7 days by CCK8 assay relative to control. It counts as functional. The note with it: time 7 day, up to 15 µM. For orientation: Tetrazolium dyes change colour on reduction, which living cells bring about.
The target of assay [6] is DNA (cytosine-5)-methyltransferase 3A (Homo sapiens) (UniProt Q9Y6K1). Description: Inhibition of human DNMT3A using lambda DNA and SAM as substrate at 1 uM by radioisotope-based MT HotSpot assay relative to control.

Activity calls are given as the source filed them. The rule behind the calls is not given here.

DNA (cytosine-5)-methyltransferase 3A (Homo sapiens), sequence (Q9Y6K1 whole entry, looked up): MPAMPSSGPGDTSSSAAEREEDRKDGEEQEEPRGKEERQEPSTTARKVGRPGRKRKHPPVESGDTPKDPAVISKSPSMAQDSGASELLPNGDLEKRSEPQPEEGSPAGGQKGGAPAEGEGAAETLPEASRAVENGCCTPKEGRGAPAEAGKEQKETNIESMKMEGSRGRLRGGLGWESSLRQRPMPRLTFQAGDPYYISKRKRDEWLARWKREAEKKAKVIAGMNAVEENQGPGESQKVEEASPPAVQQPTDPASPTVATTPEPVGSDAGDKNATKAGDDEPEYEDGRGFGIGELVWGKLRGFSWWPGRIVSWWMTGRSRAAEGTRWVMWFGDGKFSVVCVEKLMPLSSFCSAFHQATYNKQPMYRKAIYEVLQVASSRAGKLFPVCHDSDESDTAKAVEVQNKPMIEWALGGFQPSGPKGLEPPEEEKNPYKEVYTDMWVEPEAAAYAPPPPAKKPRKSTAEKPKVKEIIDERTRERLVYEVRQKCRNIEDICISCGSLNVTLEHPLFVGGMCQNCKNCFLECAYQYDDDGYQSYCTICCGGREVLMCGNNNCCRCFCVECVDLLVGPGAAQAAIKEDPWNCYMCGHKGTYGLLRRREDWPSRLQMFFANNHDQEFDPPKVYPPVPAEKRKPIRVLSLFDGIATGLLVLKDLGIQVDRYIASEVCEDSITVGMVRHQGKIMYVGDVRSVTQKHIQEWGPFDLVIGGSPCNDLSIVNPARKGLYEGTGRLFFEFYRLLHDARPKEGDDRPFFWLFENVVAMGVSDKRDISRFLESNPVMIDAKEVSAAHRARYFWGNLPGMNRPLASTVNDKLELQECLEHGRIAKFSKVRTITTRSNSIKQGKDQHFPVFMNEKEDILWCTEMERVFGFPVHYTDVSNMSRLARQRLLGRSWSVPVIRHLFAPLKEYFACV

What is called inhibition is the relative decrease from the control value, in per cent. `CCc1c(C#N)c(SC(C(N)=O)c2ccccc2)nc(N(C)CC(=O)NC)c1C#N` (stereo unspecified): the inhibition in assay [1], in assay [2], in assay [3] and in assay [6] was less than 20% throughout. Moreover, the result in the assay with HCT-116 [4] was Active. The “inhibition (INH)” value in the assay with HCT-116 [5] is less than 50%.
